Here are results for 5 molecules from US5747456A, “Continuous low-dose administration of parathyroid hormone or its agonist” (Beth Israel Deaconess Medical Center, priority 1996, dated 1998).

Non-standard residues stand in square brackets, D forms with d. Residues, ends and D or L forms follow the SMILES beside them. Nle = CCCC[C@H](N)C(=O)O

Test [1] addresses T1, PTH/PTHrP receptor in SaOS-2 B10 cells (Homo sapiens, UniProt Q03431).
T1 construct: endogenous in cells; host or cells: SaOS-2 B10 cells (subclone of the human osteosarcoma line SaOS-2)
T1 sequence (Q03431 27-593): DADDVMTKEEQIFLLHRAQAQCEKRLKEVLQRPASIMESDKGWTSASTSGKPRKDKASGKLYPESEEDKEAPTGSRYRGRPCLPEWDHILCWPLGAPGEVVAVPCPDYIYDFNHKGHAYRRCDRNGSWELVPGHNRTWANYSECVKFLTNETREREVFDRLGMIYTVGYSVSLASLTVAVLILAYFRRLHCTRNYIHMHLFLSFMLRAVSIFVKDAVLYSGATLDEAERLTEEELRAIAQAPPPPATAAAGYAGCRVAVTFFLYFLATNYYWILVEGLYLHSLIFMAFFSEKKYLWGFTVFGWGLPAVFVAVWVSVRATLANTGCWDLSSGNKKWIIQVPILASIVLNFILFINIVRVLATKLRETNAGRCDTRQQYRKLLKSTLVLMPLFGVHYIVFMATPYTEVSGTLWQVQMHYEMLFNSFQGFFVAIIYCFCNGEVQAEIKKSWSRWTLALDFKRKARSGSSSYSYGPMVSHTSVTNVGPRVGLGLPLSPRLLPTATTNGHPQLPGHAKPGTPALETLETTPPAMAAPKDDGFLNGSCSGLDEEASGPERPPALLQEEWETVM
In words: Competition binding of mono-125I-[Nle8,18,Tyr34(3-I125)]bPTH1-34 NH2 to SaOS-2 B10 cells. The following applies: 2 hrs at room temperature, read-out: IC50 (half maximal inhibition of binding of mono-125I-[Nle8,18,Tyr34(3-I125)]bPTH1-34 NH2). The protocol:
SaOS-2 B10 cells were maintained in RPMI1640 medium supplemented with 10% fetal bovine serum (FBS) and 2 mM glutamine at 37° C. in a humidified atmosphere of 5% CO2 in air. The medium was changed every three or four days, and the cells were subcultured every week by trypsinization.
SaOs-2 B10 cells were maintained for four days after they had reached confluence. The medium was replaced with 5% FBS […] medium and incubated for 2 hrs at room temperature with 10×10^4 cpm mono-^125 -I-[Nle^8,18,Tyr^34 (3-I^125)]bPTH1-34 NH2 in the presence or absence of a competing tested PTH agonist. The cells were washed four times with ice-cold PBS and lysed with 0.1M NaOH, and the radioactivity associated with the cells was counted in a scintillation counter. Synthesis of the radiolabelled [Nle8,18. Tyr^34 (3-I^125)]bPTH1-34 NH2 was carried out as described in Goldman M E et al., Endocrinology, 1988, 123, 1468-1475.
The binding assay was conducted on Analogs I-IV and Analog V (i.e., [Nle^8, Nle^18, Tyr^34 ]bPTH1-34 NH2).

Test [2] has as its system adenylate cyclase in SaOS-2 B10 cells. In words: Adenylate cyclase activity (cyclic AMP) in SaOS-2 B10 cells. The class given is cell-based, human. The settings on record: 1 mM IBMX, 5 min incubation with analog, read-out: EC50 (half maximal stimulation of adenylate cyclase). On the procedure: The adenylate cyclase activity induced by each of Analogs I-V was also measured in SaOS-2 B10 cells as described previously (Rodan et al. 1983 J. Clin. Invest. 72;1511; Goldman et al. 1988 Endocrinology 123, 1468). Confluent SaOS-2 B10 cells in 24 wells plates were incubated 0.5 μCi[^3 H]adenine (26.9 Ci/mmol, New England Nuclear, Boston, Mass.) in fresh medium at 37° C. for 2 hrs, and washed twice with Hank's solution. The cells were treated with 1 mM IBMX [isobutylmethylxanthine, Sigma, St. Louis, Mo.] in fresh medium for 15 min, and a tested PTH analog was added to the medium to incubate for 5 min. The reaction was stopped by the addition of 1.2M TCA followed by sample neutralization with 4N KOH. Cyclic AMP was isolated by the two-column chromatographic method (see Salomon et al. 1974 Anal. Biochem. 58;541). The radioactivity was counted in a scintillation counter (Liquid scintillation counter 2200CA, PACKARD, Downers Grove, Ill.).

Regarding `CCCC[C@H](NC(=O)[C@H](CO)NC(=O)[C@H](CO)NC(=O)[C@H](CC(C)C)NC(=O)[C@H](Cc1c[nH]cn1)NC(=O)[C@H](CCCCN)NC(=O)CNC(=O)[C@H](CC(C)C)NC(=O)[C@H](CC(N)=O)NC(=O)[C@H](Cc1c[nH]cn1)NC(=O)[C@H](CCCC)NC(=O)[C@H](Cc1ccccc1)NC(=O)[C@H](CCC(N)=O)NC(=O)[C@@H](NC(=O)[C@H](CCC(=O)O)NC(=O)[C@H](CO)NC(=O)[C@@H](NC(=O)[C@H](C)N)C(C)C)[C@@H](C)CC)C(=O)N[C@@H](CCC(=O)O)C(=O)N[C@@H](CCCNC(=N)N)C(=O)N[C@H](C(=O)N[C@@H](Cc1ccccc1)C(=O)N[C@@H](Cc1c[nH]c2ccccc12)C(=O)N[C@@H](CC(C)C)C(=O)N[C@@H](CCCNC(=N)N)C(=O)N[C@@H](CCCCN)C(=O)N[C@@H](CCCCN)C(=O)N[C@@H](CC(C)C)C(=O)N[C@@H](CCC(N)=O)C(=O)N[C@@H](CC(=O)O)C(=O)N[C@H](C(=O)N[C@@H](Cc1c[nH]cn1)C(=O)N[C@@H](CC(N)=O)C(=O)N[C@@H](Cc1ccc(O)cc1)C(N)=O)C(C)C)C(C)C` [Analog I, [Nle^8,18,Phe^22,Tyr^34]bPTH1-34 NH2] (H-AVSEIQF[Nle]HNLGKHLSS[Nle]ERVFWLRKKLQDVHNY-NH2; N-terminus assumed), in test [1], the IC50 was found to be 1.5 nM. In addition, the EC50 in test [2] was found to be 1.5 nM.
On to `CCCC[C@H](NC(=O)[C@H](CO)NC(=O)[C@H](CO)NC(=O)[C@H](CC(C)C)NC(=O)[C@H](Cc1c[nH]cn1)NC(=O)[C@H](CCCCN)NC(=O)CNC(=O)[C@H](CC(C)C)NC(=O)[C@H](CC(N)=O)NC(=O)[C@H](Cc1c[nH]cn1)NC(=O)[C@H](CCCC)NC(=O)[C@H](Cc1ccccc1)NC(=O)[C@H](CCC(N)=O)NC(=O)[C@@H](NC(=O)[C@H](CCC(=O)O)NC(=O)[C@H](CO)NC(=O)[C@@H](NC(=O)[C@H](C)N)C(C)C)[C@@H](C)CC)C(=O)N[C@@H](CCCNC(=N)N)C(=O)N[C@@H](CCCNC(=N)N)C(=O)N[C@H](C(=O)N[C@@H](CCC(=O)O)C(=O)N[C@@H](Cc1c[nH]c2ccccc12)C(=O)N[C@@H](CC(C)C)C(=O)N[C@@H](CCCNC(=N)N)C(=O)N[C@@H](CCCCN)C(=O)N[C@@H](CCCCN)C(=O)N[C@@H](CC(C)C)C(=O)N[C@@H](CCC(N)=O)C(=O)N[C@@H](CC(=O)O)C(=O)N[C@H](C(=O)N[C@@H](Cc1c[nH]cn1)C(=O)N[C@@H](CC(N)=O)C(=O)N[C@@H](Cc1ccc(O)cc1)C(N)=O)C(C)C)C(C)C` [Analog II, [Nle^8,18,Arg^19,Tyr^34]bPTH1-34 NH2] (H-AVSEIQF[Nle]HNLGKHLSS[Nle]RRVEWLRKKLQDVHNY-NH2; N-terminus assumed), for which the IC50 in test [1] turned out to be 0.6 nM. For the same molecule, in test [2], the 50% effective concentration (EC50) was 2 nM.
The corresponding values for `CCCC[C@H](NC(=O)[C@H](CO)NC(=O)[C@H](CO)NC(=O)[C@H](CC(C)C)NC(=O)[C@H](Cc1c[nH]cn1)NC(=O)[C@H](CCCCN)NC(=O)CNC(=O)[C@H](CC(C)C)NC(=O)[C@H](CC(N)=O)NC(=O)[C@H](Cc1c[nH]cn1)NC(=O)[C@H](CCCC)NC(=O)[C@H](Cc1ccccc1)NC(=O)[C@H](CCC(N)=O)NC(=O)[C@@H](NC(=O)[C@H](CCC(=O)O)NC(=O)[C@H](CO)NC(=O)[C@@H](NC(=O)[C@H](C)N)C(C)C)[C@@H](C)CC)C(=O)N[C@@H](CCC(=O)O)C(=O)N[C@@H](CCCNC(=N)N)C(=O)N[C@@H](CCCNC(=N)N)C(=O)N[C@@H](CCC(=O)O)C(=O)N[C@@H](Cc1c[nH]c2ccccc12)C(=O)N[C@@H](CC(C)C)C(=O)N[C@@H](CCCNC(=N)N)C(=O)N[C@@H](CCCCN)C(=O)N[C@@H](CCCCN)C(=O)N[C@@H](CC(C)C)C(=O)N[C@@H](CCC(N)=O)C(=O)N[C@@H](CC(=O)O)C(=O)N[C@H](C(=O)N[C@@H](Cc1c[nH]cn1)C(=O)N[C@@H](CC(N)=O)C(=O)N[C@@H](Cc1ccc(O)cc1)C(N)=O)C(C)C` [Analog III, [Nle^8,18,Arg^21,Tyr^34]bPTH1-34 NH2] (H-AVSEIQF[Nle]HNLGKHLSS[Nle]ERREWLRKKLQDVHNY-NH2; N-terminus assumed) are 0.3 nM and 0.2 nM.
In the case of `CCCC[C@H](NC(=O)[C@H](CO)NC(=O)[C@H](CO)NC(=O)[C@H](CC(C)C)NC(=O)[C@H](Cc1c[nH]cn1)NC(=O)[C@H](CCCCN)NC(=O)CNC(=O)[C@H](CC(C)C)NC(=O)[C@H](CC(N)=O)NC(=O)[C@H](Cc1c[nH]cn1)NC(=O)[C@H](CCCC)NC(=O)[C@H](Cc1ccccc1)NC(=O)[C@H](CCC(N)=O)NC(=O)[C@@H](NC(=O)[C@H](CCC(=O)O)NC(=O)[C@H](CO)NC(=O)[C@@H](NC(=O)[C@H](C)N)C(C)C)[C@@H](C)CC)C(=O)N[C@@H](CCCNC(=N)N)C(=O)N[C@@H](CCCNC(=N)N)C(=O)N[C@@H](CCCNC(=N)N)C(=O)N[C@@H](CCC(=O)O)C(=O)N[C@@H](Cc1c[nH]c2ccccc12)C(=O)N[C@@H](CC(C)C)C(=O)N[C@@H](CCCNC(=N)N)C(=O)N[C@@H](CCCCN)C(=O)N[C@@H](CCCCN)C(=O)N[C@@H](CC(C)C)C(=O)N[C@@H](CCC(N)=O)C(=O)N[C@@H](CC(=O)O)C(=O)N[C@H](C(=O)N[C@@H](Cc1c[nH]cn1)C(=O)N[C@@H](CC(N)=O)C(=O)N[C@@H](Cc1ccc(O)cc1)C(N)=O)C(C)C` [Analog IV, [Nle^8,18,Arg^19,21,Tyr^34]bPTH1-34 NH2] (H-AVSEIQF[Nle]HNLGKHLSS[Nle]RRREWLRKKLQDVHNY-NH2; N-terminus assumed), the IC50 in test [1] was determined as 0.3 nM. In addition, the EC50 in test [2] was determined as 0.5 nM.
The corresponding values for `CCCC[C@H](NC(=O)[C@H](CO)NC(=O)[C@H](CO)NC(=O)[C@H](CC(C)C)NC(=O)[C@H](Cc1c[nH]cn1)NC(=O)[C@H](CCCCN)NC(=O)CNC(=O)[C@H](CC(C)C)NC(=O)[C@H](CC(N)=O)NC(=O)[C@H](Cc1c[nH]cn1)NC(=O)[C@H](CCCC)NC(=O)[C@H](Cc1ccccc1)NC(=O)[C@H](CCC(N)=O)NC(=O)[C@@H](NC(=O)[C@H](CCC(=O)O)NC(=O)[C@H](CO)NC(=O)[C@@H](NC(=O)[C@H](C)N)C(C)C)[C@@H](C)CC)C(=O)N[C@@H](CCC(=O)O)C(=O)N[C@@H](CCCNC(=N)N)C(=O)N[C@H](C(=O)N[C@@H](CCC(=O)O)C(=O)N[C@@H](Cc1c[nH]c2ccccc12)C(=O)N[C@@H](CC(C)C)C(=O)N[C@@H](CCCNC(=N)N)C(=O)N[C@@H](CCCCN)C(=O)N[C@@H](CCCCN)C(=O)N[C@@H](CC(C)C)C(=O)N[C@@H](CCC(N)=O)C(=O)N[C@@H](CC(=O)O)C(=O)N[C@H](C(=O)N[C@@H](Cc1c[nH]cn1)C(=O)N[C@@H](CC(N)=O)C(=O)N[C@@H](Cc1ccc(O)cc1)C(N)=O)C(C)C)C(C)C` [Analog V, [Nle^8, Nle^18, Tyr^34]bPTH1-34 NH2, reference compound] (H-AVSEIQF[Nle]HNLGKHLSS[Nle]ERVEWLRKKLQDVHNY-NH2; N-terminus assumed) are 1.5 nM and 2 nM.

In general, IC50 refers to the point on the concentration scale where inhibition reaches its midpoint. A word on the EC50: it is the concentration that produces a half-maximal response.
